Results from patent publication US11629135B2 (JUBILANT PRODEL LLC, priority 2017, dated 2023).

Biological target: T1, PD-1/PD-L1 interaction (Homo sapiens, UniProt Q9NZQ7)
T1 construct: Tag1 or Tag2 (undisclosed kit tag); purchased CisBio 63ADK000CPAPEG
Assay: PD-1/PD-L1 Homogenous Time-Resolved Fluorescence (HTRF) binding assay
Conditions: Biochemical PD1/PD-L1 inhibition
Procedure: PD-L1 Enzyme Assay: Homogenous Time-Resolved Fluorescence (HTRF) Binding Assay
All binding studies were performed using PD-1/PD-L1 Binding Assay Kit from CisBio (Catalog #63ADK000CPAPEG), according to the manufacturer's protocol. The interaction between Tag1-PD-1 and […] was detected by anti-Tag1-Eu^3+ (HTRF donor) and anti-Tag2-XL665 (HTRF acceptor). When the donor and acceptor antibodies were brought to close proximity due to PD-1 and PD-L1 binding, excitation of the donor antibody triggered fluorescent resonance energy transfer (FRET) towards the acceptor antibody, which in turn emitted specifically at 665 nm. This specific signal is positively proportional to PD-1/PD-L1 interaction. The compounds blocking PD-1/PD-L1 interaction will cause a reduction in HTRF signal. The necessary reagents were mixed in the following order: 2 μl compounds (or diluents buffer), 4 μl PD-L1 protein, 4 μl PD-1 protein. After an incubation of 15 minutes, 5 μl of anti-Tag1-Eu^3+ and 5 μl of anti-Tag2-XL665 were added. The plate was sealed and incubated at RT for 1 h. The fluorescence emission was read at two different wavelengths (665 nm and 620 nm) on a BMG PheraStar® multiplate reader. Results were calculated from the 665 nm and 620 nm fluorescence signal and expressed in HTRF ratio=(665 nm/620 nm)×[…].

T1 sequence (Q9NZQ7 19-238 limits assumed): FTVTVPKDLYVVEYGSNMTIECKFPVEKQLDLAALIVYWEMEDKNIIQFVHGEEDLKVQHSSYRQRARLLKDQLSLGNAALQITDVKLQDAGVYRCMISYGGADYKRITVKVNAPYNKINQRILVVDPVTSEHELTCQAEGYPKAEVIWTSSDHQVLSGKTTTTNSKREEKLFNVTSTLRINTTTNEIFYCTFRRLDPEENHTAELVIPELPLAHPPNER

Compound | IC50 [µM]
Cc1c(COc2ncc(CN3CCCCC3C(=O)O)c(OCc3ccccc3)n2)cccc1-c1ccccc1 (stereo not drawn) [Compound 33, 1-((4-(benzyloxy)-2-((2-methyl-[1,1′-biphenyl]-3-yl)methoxy)pyrimidin-5-yl)methyl)piperidine-2-carboxylic acid] | > 0.5
COc1nc(OCc2cccc(-c3ccccc3)c2C)nc(OC)c1CN1C[C@H](O)C[C@H]1C(=O)O [Compound 34, (2S,4R)-1-((4,6-dimethoxy-2-((2-methyl-[1,1′-biphenyl]-3-yl)methoxy)pyrimidin-5-yl)methyl)-4-hydroxypyrrolidine-2-carboxylic acid] | < 0.1
COc1nc(OCc2cccc(-c3ccccc3)c2C)nc(OC)c1CNC(CO)(CO)CO [Compound 35, 2-(((4,6-dimethoxy-2-((2-methyl-[1,1′-biphenyl]-3-yl)methoxy)pyrimidin-5-yl)methyl)amino)-2-(hydroxymethyl)propane-1,3-diol] | < 0.1
COc1nc(OCc2cccc(-c3ccccc3)c2C)nc(OC)c1CN1CCC[C@H]1C(=O)O [Compound 36, ((4,6-dimethoxy-2-((2-methyl-[1,1′-biphenyl]-3-yl)methoxy)pyrimidin-5-yl)methyl)-L-proline] | 0.1 to 0.5
COC(=O)C1COCCN1Cc1c(OC)nc(OCc2cccc(-c3ccccc3)c2C)nc1OC (stereo not drawn) [Compound 37, Methyl 4-((4,6-dimethoxy-2-((2-methyl-[1,1′-biphenyl]-3-yl)methoxy)pyrimidin-5-yl)methyl) morpholine-3-carboxylate] | > 0.5
COc1nc(OCc2cccc(-c3ccccc3)c2C)nc(OC)c1CN1CCOCC1C(=O)O (stereo not drawn) [Compound 38, 4-((4,6-dimethoxy-2-((2-methyl-[1,1′-biphenyl]-3-yl)methoxy)pyrimidin-5-yl)methyl)morpholine-3-carboxylic acid] | < 0.1
CCOc1nc(OCc2cccc(-c3ccccc3)c2C)nc(OCC)c1CN1C[C@H](O)C[C@H]1C(=O)O [Compound 39, (2S,4R)-1-((4,6-diethoxy-2-((2-methyl-[1,1′-biphenyl]-3-yl)methoxy)pyrimidin-5-yl)methyl)-4-hydroxypyrrolidine-2-carboxylic acid] | 0.1 to 0.5
CCOc1nc(OCc2cccc(-c3ccccc3)c2C)nc(OCC)c1CN1CCCC[C@H]1C(=O)O [Compound 40] | 0.1 to 0.5
CCOc1nc(OCc2cccc(-c3ccccc3)c2C)nc(OCC)c1CNC(CO)(CO)CO [Compound 41, 2-(((4,6-diethoxy-2-((2-methyl-[1,1′-biphenyl]-3-yl)methoxy)pyrimidin-5-yl)methyl)amino)-2-(hydroxymethyl)propane-1,3-diol] | 0.1 to 0.5
COc1nc(OCc2cccc(-c3ccccc3)c2C)nc(OC)c1CN1CCOC[C@H]1C(=O)O [Compound 43, (S)-4-((4,6-dimethoxy-2-((2-methyl-[1,1′-biphenyl]-3-yl)methoxy)pyrimidin-5-yl)methyl)morpholine-3-carboxylic acid] | < 0.1
COc1nc(OCc2cccc(-c3ccccc3)c2C)nc(OC)c1CN1CCOCC1CC(=O)O (stereo not drawn) [Compound 44, 2-(4-((4,6-dimethoxy-2-((2-methyl-[1,1′-biphenyl]-3-yl)methoxy)pyrimidin-5-yl)methyl)morpholin-3-yl)acetic acid] | 0.1 to 0.5
COc1nc(OCc2cccc(-c3ccccc3)c2C)nc(OC)c1CN1CC2(CC2)C[C@H]1C(=O)O [Compound 46, (S)-5-((4,6-dimethoxy-2-((2-methyl-[1,1′-biphenyl]-3-yl)methoxy)pyrimidin-5-yl)methyl)-5-azaspiro[2.4]heptane-6-carboxylic acid] | < 0.1
COc1nc(OCc2cccc(-c3ccccc3)c2C)nc(OC)c1CN1CCCC2(CCNC2=O)C1 (stereo not drawn) [Compound 47, 7-((4,6-dimethoxy-2-((2-methyl-[1,1′-biphenyl]-3-yl)methoxy)pyrimidin-5-yl)methyl)-2,7-diazaspiro[4.5]decan-1-one] | < 0.1
COc1nc(OCc2cccc(-c3ccccc3)c2C)ncc1CN1CCN(C(C)=O)C[C@H]1C(=O)O [Compound 49, (S)-4-acetyl-1-((4-methoxy-2-((2-methyl-[1,1′-biphenyl]-3-yl)methoxy)pyrimidin-5-yl)methyl)piperazine-2-carboxylic acid] | > 0.5

More lines, now with the values ahead:

IC50 [µM] | Compound
> 0.5 | COc1nc(OCc2cccc(-c3ccccc3)c2C)ncc1CN1CCNC[C@H]1C(=O)O [Compound 50, (S)-1-((4-methoxy-2-((2-methyl-[1,1′-biphenyl]-3-yl)methoxy)pyrimidin-5-yl)methyl)piperazine-2-carboxylic acid]
> 0.5 | COc1nc(OCc2cccc(-c3ccccc3)c2C)ncc1CN1CC2(CC2)C[C@H]1C(=O)O [Compound 51, (S)-5-((4-methoxy-2-((2-methyl-[1,1′-biphenyl]-3-yl)methoxy)pyrimidin-5-yl)methyl)-5-azaspiro[2.4]heptane-6-carboxylic acid]
> 0.5 | COc1nc(OCc2cccc(-c3ccccc3)c2C)ncc1CN1CCCC2(CCNC2=O)C1 (stereo not drawn) [Compound 52, 7-((4-methoxy-2-((2-methyl-[1,1′-biphenyl]-3-yl)methoxy)pyrimidin-5-yl)methyl)-2,7-diazaspiro[4.5]decan-1-one]
> 0.5 | CC(=O)NCCNCc1cnc(OCc2cccc(-c3ccccc3)c2C)nc1OCc1ccc(F)c(C#N)c1 [Compound 53, N-(2-(((4-((3-cyano-4-fluorobenzyl)oxy)-2-((2-methyl-[1,1′-biphenyl]-3-yl)methoxy)pyrimidin-5-yl)methyl)amino)ethyl)acetamide]
0.1 to 0.5 | Cc1c(COc2ncc(CN3C[C@H](O)C[C@H]3C(=O)O)c(OCc3ccc(F)c(C#N)c3)n2)cccc1-c1ccccc1 [Compound 54, (2S,4R)-1-((4-((3-cyano-4-fluorobenzyl)oxy)-2-((2-methyl-[1,1′-biphenyl]-3-yl)methoxy)pyrimidin-5-yl)methyl)-4-hydroxypyrrolidine-2-carboxylic acid]
< 0.1 | COc1nc(OCc2cccc(-c3ccc4c(c3)OCCO4)c2C)nc(OC)c1CN1CCCC[C@H]1C(=O)O [Compound 55, (S)-1-((2-((3-(2,3-dihydrobenzo[b][1,4]dioxin-6-yl)-2-methylbenzyl)oxy)-4,6-dimethoxypyrimidin-5-yl)methyl)piperidine-2-carboxylic acid]
< 0.1 | COc1nc(OCc2cccc(-c3ccc4c(c3)OCCO4)c2C)nc(OC)c1CNCCNC(C)=O [Compound 56, N-(2-(((2-((3-(2,3-dihydrobenzo[b][1,4]dioxin-6-yl)-2-methylbenzyl)oxy)-4,6-dimethoxypyrimidin-5-yl)methyl)amino)ethyl)acetamide]
> 0.5 | COc1ccc(-c2cccc(COc3nc(OC)c(CNCCNC(C)=O)c(OC)n3)c2C)cc1OC [Compound 57, N-(2-(((2-((3′,4′-dimethoxy-2-methyl-[1,1′-biphenyl]-3-yl)methoxy)-4,6-dimethoxypyrimidin-5-yl)methyl)amino)ethyl)acetamide]
> 0.5 | COc1ccc(-c2cccc(COc3nc(OC)c(CN4C[C@H](O)C[C@H]4C(=O)O)c(OC)n3)c2C)cc1OC [Compound 58]
> 0.5 | Cc1c(COc2ncc(CN3C[C@H](O)C[C@H]3C(=O)O)c(OCc3cncc(C#N)c3)n2)cccc1-c1ccccc1 [Compound 59, (2S,4R)-1-((4-((5-cyanopyridin-3-yl)methoxy)-2-((2-methyl-[1,1′-biphenyl]-3-yl)methoxy)pyrimidin-5-yl)methyl)-4-hydroxypyrrolidine-2-carboxylic acid]
0.1 to 0.5 | COc1nc(OCc2cccc(-c3ccccc3)c2C)ncc1CN1CCCC[C@H]1CC(=O)O [Compound 60, (S)-2-(1-((4-methoxy-2-((2-methyl-[1,1′-biphenyl]-3-yl)methoxy)pyrimidin-5-yl)methyl)piperidin-2-yl) acetic acid]
< 0.1 | Cc1nc(OCc2cccc(-c3ccccc3)c2C)ncc1CN1CCCC[C@H]1C(=O)O [Compound 64, (S)-1-((4-methyl-2-((2-methyl-[1,1′-biphenyl]-3-yl)methoxy)pyrimidin-5-yl)methyl)piperidine-2-carboxylic acid]
0.1 to 0.5 | CC(=O)NCCNCc1cnc(OCc2cccc(-c3ccccc3)c2C)nc1C [Compound 65, N-(2-(((4-methyl-2-((2-methyl-[1,1′-biphenyl]-3-yl)methoxy)pyrimidin-5-yl)methyl)amino)ethyl)acetamide]
